Assays:
[1] = tested on: X^on induction system; test: Dose studies with various inducer molecules, AAV-CAG-X^on-eGFP fluorescence (Example 3); type: cell-based; conditions: cells transduced with 1e^6 vg/cell AAV-CAG-X^on-eGFP; inducer added after 24 hours at 4 concentrations
Experimental: Briefly, cells were seeded in black 96-well plates for 24 hours and transduced with 1e^6 vg/cell AAV-CAG-X^on-eGFP as described in Example 1. After 24 hours, each inducer was added directly into the cell media at 4 different concentrations each. Cells expressing the eGFP payload were visualized by fluorescent live imaging (20× magnification) after induction with branaplam (FIG. 20A) or RG7800 (FIG. 20B). Cells were counter-stained with […] Hoechst to identify nuclei and determine total cell counts for normalization. The number of eGFP-positive cells as well as the green fluorescence intensity was measured for each well and each condition up to 9 hours post-induction to determine the kinetics of the payload expression post-induction (FIGS. 20C-20H).

[2] = tested on: X^on splicing control element; test: Kinetics of eGFP induction with branaplam and RG7800-HCl, live cell imaging (Example 4); type: cell-based; conditions: for induced eGFP expression level compared with the constitutive construct: AAV-CAG-X^on-eGFP versus constitutive AAV-CAG-eGFP, inducer at optimal concentrations; for course of eGFP payload expression after induction: AAV-CAG-X^on-eGFP, monitored for 14, 28 or 84 hours
Experimental: Cells were seeded in 96-well plates for 24 hours and transduced with AAV-CAG-X^on-eGFP or constitutive AAV-CAG-eGFP as the positive control, and treated with or without branaplam or RG7800-HCl. Fluorescent eGFP payload expression was monitored for a total of 14 hours (FIGS. 21A-21D) or 28 hours (FIGS. 22A-22D) by live cell imaging.

[3] = tested on: X^on splicing control element; test: ON/OFF control of fLuc expression with cycles of branaplam (Example 6); type: cell-based, human; conditions: HEK293-T, AAV-CAG-X^on-fLuc, MOI 2.5E5 vg/cell
Experimental: HEK293-T cells were transduced with AAV and then branaplam, and after 24 hours of induction with branaplam, supernatants were harvested and assayed for luciferase expression, and the media was replaced with fresh medium without branaplam. Supernatants for the next timepoint were then harvested after 24 hours in the condition without branaplam, and the cycle was repeated (e.g., one or two or more times; FIG. 25A). Briefly, HEK293-T cells were transduced with an MOI of 2.5E5 vg/cell of AAV-CAG-X^on-fLuc (FIG. 25B) for 24 hours, followed by addition of branaplam at 3 different concentrations at hour 24 for an additional 24 hours (“ON”). Supernatants were then harvested for the measurement of fLuc, and media was replaced with fresh media lacking branaplam (“OFF”) for 24 hours. Supernatants were harvested after 24 hours in the OFF state. fLuc luminescent signal was measured for each cycle in sample supernatants at each time point and condition described (FIG. 25C).

[4] = tested on: X^on splicing element; test: Inducible AAV-GFP / AAV-eGFP expression after the inducer branaplam, live fluorescent imaging (Example 2); type: cell-based, human; conditions: HEK293-T cells transduced with AAV-CAG-X^on-eGFP, branaplam 125 nM
Text: Adherent human HEK293-T cells were transduced with inducible AAV-GFP, followed by fluorescent imaging for GFP expression pre- and post-administration of an inducer molecule (e.g., branaplam). The data is seen in FIG. 17.
Adherent human HEK293-T cells were transduced with AAV-GFP at varying dosages, followed by administration of an inducer molecule (e.g., branaplam), and monitored for GFP expression over several hours to determine initial expression kinetics at different AAV dosages in vitro. The data is seen in FIG. 19.
In a similar set of experiments, HEK293-T cells were plated in a 96-well plate for 24 hours and transduced with a broad range of multiplicity of infection (MOI) using a constitutively-expressing payload expression construct, AAV-CAG-eGFP, to determine the necessary MOI for detectable eGFP expression prior to advancing to the inducible constructs described in Example 1. MOIs tested ranged from 3E4 to 4E6 vg/cell. Transduction efficacy was assessed by measuring the eGFP payload expression from transduced cells using a fluorescent microscopy imager (FIG. 18). Once an MOI was selected, the inducible AAV-CAG-X^on-eGFP was tested with an inducer molecule, branaplam at 125 nM, 24 hours post-transduction. […] Control cells were transduced with AAV-CAG-X^on-eGFP without the addition of an inducer. […]

[5] = tested on: X^on splicing control element; test: ON/OFF control of hIFNβ expression with branaplam, ELISA of supernatants (Example 7); type: cell-based, human; conditions: HEK293-T, AAV-CAG-X^on-hIFNβ, MOI 2.5e^5 vg/cell
Experimental: Briefly, HEK293-T cells were transduced with an MOI of 2.5e^5 vg/cell of AAV-CAG-X^on-hIFNβ or constitutive AAV-CAG-hIFNβ for 24 hours. 24 hours post-transduction with AAV, branaplam was added to the cell media to induce human IFNβ (hIFNβ) expression (“ON”). After 24 hours, media supernatants were harvested for payload measurement and fresh media lacking Branaplam (“OFF”). 24 hours later, media supernatants were harvested for payload detection (FIG. 25A). Amounts of hIFNβ were measured in picograms per milliliter (pg/mL) (FIG. 26A) using an ELISA kit for hIFNβ in supernatants before and after induction with branaplam, and after removal of branaplam. FIG. 26B depicts the expression of hIFNβ following transduction with AAV-CAG-X^on-hIFNβ normalized to the levels of expression obtained with the constitutive payload.

| SMILES | active concentration for induction of eGFP payload expression [1] [µM] | induced eGFP expression level compared with the constitutive construct [2] | course of eGFP payload expression after induction [2] | fLuc expression in OFF conditions (without branaplam for 24 hours) [3] | re-induction of fLuc expression achievable and detectable, number of cycles [3] | dose of branaplam needed to mediate reliable payload expression and cycle control ([3]; 3 concentrations, 24 hours ON / 24 hours OFF) [nM] | detectable GFP and eGFP expression, earliest time post-induction ([4]; 24 hours post-transduction, imaging every 30 minutes) [h] | course of GFP and eGFP signal post-induction ([4]; read up to 5 hours) | number of repeat ON/OFF cycles on the same transduced cells [5] | time to induced expression of hIFNβ after induction ([5]; ELISA of supernatant) [h] | time until hIFNβ expression stopped after removal of branaplam ([5]; ELISA of supernatant) [h] |
| --- | --- | --- | --- | --- | --- | --- | --- | --- | --- | --- | --- |
| CCc1nc(C)cn2nc(-c3cc(=O)n4cc(C5CCN(C)CC5)cc(C)c4n3)cc12.Cl [RG7800-HCl] | 20 | nearly the same levels of expression | continued to increase over the first 12 hours, followed by a slower increase to 24 hours |  |  |  |  |  |  |  |  |
| CCc1nc(C)cn2nc(-c3cc(=O)n4cc(C5CCN(C)CC5)cc(C)c4n3)cc12 [RG7800] | 20 |  |  |  |  |  |  |  |  |  |  |
| CC1(C)CC(Oc2ccc(-c3ccc(-c4cn[nH]c4)cc3O)nn2)CC(C)(C)N1 [branaplam] |  | nearly the same levels of expression | continued to increase over the first 12 hours, followed by a slower increase to 24 hours | reliably reduced expression of the fLuc | at least 2 full induction cycles | ≥ 200 | 3 | continuing to increase up to 5 hours post-induction | up to 2 repeat cycles | ≤ 24 | ≤ 24 |

Source: patent US20260137809A1, “GENE THERAPY VECTORS FOR TREATMENT OF CANCER” (Siren Biotechnology, Inc., priority 2022, published 2026)
